The conditions of data set [1]: broiler chickens; cited from earlier work.
The conditions of data set [2]: pigs; cited from earlier work.
The conditions of data set [3]: rats; cited from earlier work.
The conditions of data set [4]: female pigs; cited from earlier work.
Data set [5] is described as follows: Toxicokinetics of ZEN-14G in rats after oral and intravenous administration (plasma LC-MS/MS, non-compartmental analysis). The format is in vivo, Wistar rats. Particulars: for level detected in plasma after oral administration of ZEN-14G: p.o. ZEN-14G 0.75 mg/kg, Figure 3A; for k el: mean ± SD, n = 12, read-out: λZ (elimination rate constant) (converted); for AUC(0-inf): read-out: AUC0-infinity; for half-life: read-out: Elimination t1/2 (converted); for amount observed in plasma after intravenous administration of ZEN-14G: i.v. ZEN-14G 0.75 mg/kg, Figure 3D. How it is done: The validated LC-MS/MS method was eligible for the toxicokinetic characterization of ZEN-14G in rats. The obtained data (above the LOQ) were analyzed via non-compartmental analysis using WinNonlin 6.3 software (Pharsight Co. Mountain View, CA, USA). The area under the plasma concentration–time curve (AUC) was obtained using the trapezoidal rule with extrapolation to infinity. […] The half-life period of ZEN in pigs was much longer than ZEN-14G in rats, which may be attributed to enterohepatic circulation. […] The low absolute bioavailability of ZEN-14G might be due to the deglycosylation of ZEN-14G to ZEN. The CL and VZ are extremely different between oral (p.o.) and intravenous (i.v.) administration. The VZ depends on the total mass absorbed and the plasma concentration. For oral administration, the low plasma concentration of ZEN-14G may because ZEN-14G appeared to be distributed into a very large volume or rapidly biotransformed into other compounds. The low oral bioavailability and low plasma concentration of ZEN-14G led to the […] VZ than that of i.v. administration. […] CL is the volume of blood from which a compound is removed per unit time. In comparison with p.o., much more of ZEN-14G was absorbed in the plasma after intravenous injection (i.v.)—more volume of blood cleared of ZEN-14G per unit time.
ZEN-14G was dissolved in aqueous solution containing 0.5% carboxymethyl cellulose. We selected twelve Wistar rats (half male and half female, with an average weight of 180 g, obtained from Vital River Laboratory Animal Technology Co. Ltd (Beijing, China). The rats were raised for one week for acclimation before the experiment, and the rats went through a 12 h fast before dosing. Six rats were treated with ZEN-14G via oral gavage at a dosage of 0.75 mg/kg body weight followed by blood collection at 0.083, 0.16, 0.25, 0.5, 0.75, 1.0, 1.5, 2, 4, and 6 h post administration while the other six rats were administered with the same amount of ZEN-14G intravenously and the blood samples were collected at the same time points. After a one-week withdrawal period, a crossover design was used for the following experiment where the rats administered orally would receive intravenous administration and vice versa. […] All the animal experiments complied with the National Institutes of Health guide for the care and use of laboratory animals, which has been approved on 20 March 2018 by the ethical committee of China Agricultural University (Beijing, China) (2018-SYXK-0238).
We extracted 100 μL of plasma using 100 μL of acetonitrile followed by centrifugation for 5 min at 14,000× g at 4 °C. This analytical method was established based on the published literature. The supernatant was gathered, evaporated until dry and eventually re-dissolved in 100 μL of 15% acetonitrile. This analytical method was soundly validated in plasma before application.
The separation and identification of ZEN-14G and its metabolites were performed on a Phenomenex column (Kinetex 50 mm × 2.1 mm i.d. 1.7 μm particle size, C18) using an ultra-high-performance liquid chromatograph (Agilent 1260 Infinity) coupled to a triple quadrupole mass spectrometer (Agilent 6495) under negative ESI mode (Agilent Technologies, Palo Alto, CA, USA). The chromatographic separations were achieved through a gradient elution program. Mobile phase A was water containing 0.1% formic acid, and phase B was acetonitrile containing 0.1% formic acid. The gradient elution program for phase B was listed as: 0–1 min, 0%–15%; 1–2 min, 15%–45%; 2–4 min, 45%–90%; 4–5 min, 90%; 5–5.1 min, 90%–15%; and 5.1–6.0 min, 15%. The key parameters for the mass spectrometer were as follows: capillary voltage (3.5 kV); gas temperature (250 °C); gas flow (11 L/min); nebulizer (45 psi); sheath gas temperature (350 °C); and sheath gas flow (12 L/min). Furthermore, the detailed information on precursor ions and the product ions of ZEN-14G and quantifiable products are described in Table S1. […]

For data set [6] the following is noted: poultry; cited from earlier work.
Another data set deals with estrogenic receptors. Also on record: method as in PMID 32625539. Particulars: compared with ZEN; cited from earlier work.
The mark [7] stands for this setting: both sexes, Wistar, rat, in vivo, iv, 0.75 mg/kg body weight.
Setting [8] is: both sexes, Wistar, rat, in vivo, po, 0.75 mg/kg body weight.

Read-outs that look alike come from different tables or passages of the source.

A word on the bioavailability: it is the share of a dose that reaches the circulation, judged against a reference dose that is usually intravenous. Usually AUC(0-t) stands for the area under the concentration-time curve up to a stated or last time point. A high value points to high exposure. What is called MRT is a mean duration of stay, worked out from the concentration-time curve. As usually defined, the Cmax is the peak of the concentration-time curve. A word on the Tmax: it is the time from dosing to the highest level.

`CC1=C[C@H]2O[C@@H]3[C@H](O[C@@H]4O[C@H](CO)[C@@H](O)[C@H](O)[C@H]4O)C[C@](C)([C@@]2(CO)[C@H](O)C1=O)[C@]31CO1` [DON-3G, deoxynivalenol-3-β-D-glucoside]: the absolute oral bioavailability in data set [1] is on record as 3.79%; in data set [2] it was 16.1%.

In the case of `C[C@H]1CCCC(=O)CCC/C=C/c2cc(O)cc(O)c2C(=O)O1` [ZEN, Zearalenone], the oral bioavailability in data set [3] and in data set [6] was 10% throughout. For the same compound, in data set [4], the absolute oral bioavailability result is given as “around 51.5%”. For the same compound, in data set [5] (after i.v. ZEN-14G 0.75 mg/kg body weight), the “yield of ZEN in plasma relative to that of ZEN-14G” value is reported as “approximately 4.5 times”. Besides, the “level detected in plasma after oral administration of ZEN-14G” value in data set [5] is “trace level”.

Regarding `CC1CCCC(=O)CCC/C=C/c2cc(OC3OC(CO)C(O)C(O)C3O)cc(O)c2C(=O)O1` (stereo not drawn) [ZEN-14G, Zearalenone-14-glucoside], the estrogenic potency result in the data set with estrogenic receptors is “comparable to that of ZEN”. For the same compound, the visible adverse phenomena result in data set [5] (0.75 mg/kg body weight, any route of administration (p.o., i.v.)) is recorded as “No visible adverse phenomena”. Further, the bioavailability in data set [5] (both sexes, Wistar, rat, in vivo, 0.75 mg/kg, AUC oral / AUC intravenous × 100%, 0.75 mg/kg body weight, read-out: F (absolute oral bioavailability)) is approximately 9%. Also, in data set [5] (setting [7]), the AUC(0-t) amounted to 1.79 ± 0.03 ng·h/mL, the k el is 0.000883 s⁻¹, the AUC(0-inf) is 1.8 ± 0.02 ng·h/mL and the half-life is 13.2 ± 1.8 min. In addition, the MRT in data set [5] (both sexes, Wistar, rat, in vivo, iv, 0.75 mg/kg, i.v., 0.75 mg/kg body weight, read-out: MRT (mean residence time)) was 12 ± 1.8 min. For the same compound, the Vd in data set [5] (both sexes, Wistar, rat, in vivo, iv, 0.75 mg/kg, i.v., 0.75 mg/kg body weight, read-out: VZ (apparent volume of distribution)) is 7.25 ± 1.23 L/kg. For the same compound, the Vd in data set [5] (both sexes, Wistar, rat, in vivo, iv, 0.75 mg/kg, i.v., 0.75 mg/kg body weight, read-out: VZ (apparent volume of distribution), as printed in text) was determined as 87.2 L/kg. Besides, in data set [5] (setting [8]), the AUC(0-t) worked out at 0.11 ± 0.03 ng·h/mL, the concentration peaked (Cmax) at 0.2 ± 0.03 ng/mL, the Tmax amounted to 4.98 ± 0.6 min and the k el is 0.0002 s⁻¹. In addition, in data set [5] (setting [8]), the AUC(0-inf) amounted to 0.16 ± 0.02 ng·h/mL and the half-life was 57.6 ± 4.2 min. Further, the CL/F in data set [5] (both sexes, Wistar, rat, in vivo, po, 0.75 mg/kg body weight, read-out: CL (apparent total body clearance) (converted)) was 75 mL/min/kg. In data set [5] (i.v., 0.75 mg/kg body weight), the “CL (apparent total body clearance)” value stood at 83.7 ± 10.3 mL/min/kg. For the same compound, in data set [5] (p.o., 0.75 mg/kg body weight), the “VZ (apparent volume of distribution)” value stood at 6.24 ± 0.73 L/kg. Also, the “time point of the peak concentration” value in data set [5] (p.o., first time point) is reported as 5 min.

As for `CC1CCC[C@H](O)CCC/C=C/c2cc(O)cc(O)c2C(=O)O1` (stereo partly drawn) [α-ZEL, α-zearalenol], in data set [5], the “amount observed in plasma after intravenous administration of ZEN-14G” value was “small amount” and the “level detected in plasma after oral administration of ZEN-14G” value is reported as “trace level”.

For the compound `CC1CCC[C@H](O)CCC/C=C/c2cc(OC3OC(CO)C(O)C(O)C3O)cc(O)c2C(=O)O1` (stereo partly drawn) [α-ZEL-14G], the “amount observed in plasma after intravenous administration of ZEN-14G” value in data set [5] is recorded as “small amount”.

The record behind these values is article PMC6862289, “Metabolic Profile, Bioavailability and Toxicokinetics of Zearalenone-14-Glucoside in Rats after Oral and Intravenous Administration by Liquid Chromatography High-Resolution Mass Spectrometry and Tandem Mass Spectrometry” (International Journal of Molecular Sciences, 2019).
